These results are taken from patent publication US20030135065A1, “Process for the production of L-DOPA ethyl ester” (priority 2001, published 2003).

Data set [1] is described as follows: Stability of L-DOPA ethyl ester forms. It is filed as physicochemical. An excerpt: (§1) Great Britain Patent No. 1,364,505 and corresponding U.S. Pat. No. 3,803,120, assigned to Hoffman-La Roche, describe the synthesis of L-DOPA ethyl ester hydrochloride salt and free base. This compound is used as an intermediate in the synthesis of other compounds and is not characterized in the patent specification. […] This material cannot be used for pharmaceutical compositions. Likewise, the L-DOPA ethyl ester free base as prepared in these two patents is impure and not stable and thus also is not suitable for pharmaceutical compositions. At best it can be used as a synthetic intermediate for further chemical synthesis as described in the cited patents.
(§2) L-DOPA ethyl ester as free base obtained by this process is stable, non-hygroscopic, and crystalline. The LDEE free base has a particle size from 5 to 300 micron and an average particle size of 80 micron.

Data set [2] in a line: Hygroscopicity of L-DOPA ethyl ester forms. It is filed as physicochemical.
Excerpt: as §1, §2

A short description of data set [3]: Particle size of LDEE free base. Type of data set: physicochemical. Conditions: free base obtained by this process.
Excerpt: as §2

For data set [4] the following is noted: composition produced according to the Milman process (U.S. Pat. No. 5,354,885); 6 months at 40° C.; cited from earlier work.
[5] abbreviates: material synthesized by the methods of GB 1,364,505 / U.S. Pat. No. 3,803,120.
[6] abbreviates: free base obtained by this process.

With `CCOC(=O)[C@@H](N)Cc1ccc(O)c(O)c1.Cl` [L-DOPA ethyl ester hydrochloride salt, L-DOPA ethyl ester hydrochloride, reference compound], in data set [1] (setting [5]), the stability result is reported as “not stable”. Besides, in data set [2] (setting [5]), the hygroscopicity result is on record as “hygroscopic”.
`CCOC(=O)[C@@H](N)Cc1ccc(O)c(O)c1` [L-DOPA ethyl ester]: the average particle size in data set [3] is 80 micron. In addition, in data set [4], the “L-DOPA ethyl ester remaining after incubation” value is “at least 97 % by weight”. Besides, the stability entry was “stable” in data set [1] (setting [6]) and “not stable” in data set [1] (setting [5]). Also, the hygroscopicity result in data set [2] (setting [6]) is “non-hygroscopic”.
